Data set [1] concerns 5 different Gram negative pathogens. The data set is described as follows: Efficacy in 8 animal models with 5 Gram negative pathogens. The format is in vivo. The following applies: 8 models, mouse and rat. The procedure: Compound 5 was tested for efficacy in 8 models (both mouse models and rat models) with 5 different Gram negative pathogens. […]
In data set [2] the test system is Rat kidney proximal tubule cells. Kind of data set: Cell culture cytotoxicity assay (ATP bioluminescence, LLC-PK1). The format is cell-based. The settings on record: LLC-PK1, 24 hours, ATP readout. On the procedure: Day 1: 1×10^5 to 2×10^5 cellswere inoculated (Cell line: LLC-PK1) per flask, containing 4 mL/T25 flask of medium DMEM-F12 (50/50) media supplemented with 10% FBS (Fetal Bovine Serum). The cells were then incubated at 37° C., 5% CO2, 80% RH.
Day 4: The cell cultures were examined to determine 80% confluency. To trypsinize of the 80% confluent flasks, 4 mL of DMEM-F12-10% FBS media was prepared per flask. The media was aspirated from the flask and 5 mL of Versene was added to rinse the flask. The Versene was aspirated and 2 mL of triple Express solution (trypsin solution) was added. The cells were incubated for 5 min at room temperature and examined via microscopy for the rounding of the cells and their detachment. To speed up the reaction, the flask can be incubated at 37° C. for 3 minutes. 4 mL of media (DMEM-F12-10%FBS) was added to stop the reaction. Using a 5 mL pipette, the completed reaction was pipetted up and down to ensure that the cells were properly detached from the flask and from each others. The cell number was counted using a hemocytometer slide. 100 μL of cell suspension was transferred to a tube and 100 μL of Trypan Blue was added. Inoculum for 96 well is 10,000 cells per well. For one 96 well plate, 26.3 μL×110 well=2893 μL total. 2.9 mL of cell suspension was mixed with 8.1 mL of media DMEM-F12-10% FBS and 100 μL was distributed to each well using a multichannel pipetter. The plate was then Incubated for 24 h at 37° C.
Day 5: DMEM-F12 (no FBS) medium was dispensed into tubes with the test article to achieve final concentrations of […]. The 96 well plate was taken off the incubator and media was removed from each well using multichannel pipetter. 80 μL of serially diluted compounds of Formula (I) was added to each well. Every set of concentration was done in triplicate. Media and positive controls were added to each plate and the plates were incubated for 24 hours at 37° C.
Day 6: The plates were taken from the incubator, the media was removed from each well, and 100 μL of fresh media DMEM-F12 (this is equivalent to a rinse and the media can be replaced with PBS) was added. The media is then removed and 80 μL of cell lysis solution is added. After 5 minutes, 80 μL of sterile filtered high quality water was added to each well. Using a white or black 96 well reaction plate, 80 μL of 25× diluted ATP mix reagent (Sigma Bioluminescent Somatic Cell Assay Kit [cat #FL-ASC]) was added into one column. 80 μL of diluted ATP standards (dilutions used: 250, 500, 1000, 2000 and 4000) was added and the plate was read immediately in the topcount with a 2 second read time. In another white or black 96 well reaction plate, 80 μL of 25× diluted ATP mix reagent (plate A) was added and 80 μL of lysis-water solution was transferred to each column of plate A. The plate was then read immediately in the topcount with a 2 second read time. This process was repeated for next consecutive plate and the EC50 for certain compounds of Formula I were calculated and provided in Table 4.

In a further data set the test system is E. coli 1699. Kind of data set: MIC, broth microdilution. It counts as cell-based, Escherichia coli. The settings on record: Table 3B. The procedure: (§1) MIC testing was performed according to Clinical and Laboratory Standards Institute (CLSI) M7-A7 (2006) broth microdilution methods. Unless otherwise indicated, MIC values are provided in units of micrograms per milliliter.
(§2) One day prior to testing, individual colonies were isolated by streaking onto rich, non-selective Tryptic Soy agar with 5% lysed sheeps blood (TSAB) with incubation at 35-37° C. for 18-24 hours.
(§3) Cultures were prepared by touching 3-5 colonies into 3 mL of Cation adjusted Mueller Hinton Broth (caMHB) in a 14 mL tube (CaMHB was prepared and sterilized according to manufacturer's specifications). Cultures were grown at 37° C. 200 rpm for approximately four hours prior to density adjustment for addition to the MIC assay.
(§4) OD600 of growing cultures was measured and adjusted to approximately 10^5 colony forming units per mL (CFU/mL) in caMHB for MIC inoculation (approximately OD600 0.001).
(§5) Diluted cultures were used to inoculate 50 μL per well in broth microdilution assays (final volume 100 μl per well; compounds were prepared in two-fold dilutions).
(§6) Plates were incubated 16-20 hrs at 37° C., with shaking at 200 rpm.
(§7) OD600 was determined for all wells. Growth was defined as OD600>0.1. MICs were defined as the lowest concentration producing no visible turbidity (OD600<0.1).

A short description of data set [3]: Dissociation constant (pKa).
Data set [4] has as its system female cynomolgus monkeys. The data set is described as follows: Seven days of repeated IV administration, kidney findings (QD/BID mg/kg doses). It counts as in vivo, cynomolgus monkey. The settings on record: 6 mg/kg BID. The procedure:
The kidney findings in female cynomolgus monkeys following seven days of repeated IV administration of Compound 5 were evident at dose levels of 6 mg/kg BID, 6 mg/kg QD, and 9 mg/kg QD, and to a lesser degree of severity at 3 and 4.5 mg/kg BID.

A further data set relates to K. pneumonia 21. The data set is described as follows: MIC, broth microdilution. The format is cell-based, Klebsiella pneumoniae. The following applies: Table 3B. The procedure: as §1, §2, §3, §4, §5, §6, §7
In general terms: In broth dilution the organism is exposed to a series of concentrations in liquid medium.

≈ marks a conversion by molar mass, not a printed value. Numbered stars: 1 amine (or outer) side, 2 acyl side, 3 side chain; on linkers, the order of the positions; unused ones are H or OH. Bridge positions count the residues as written; N and C are the ends. Square brackets hold non-standard residues; d marks the D form. Peptide text beside a SMILES is read from it. * marks the point of attachment. NH(2-ClPh) = Clc1ccccc1N*; Dab = NCC[C@H](N)C(=O)O; CO = O=C([*:1])[*:2]

A word on the solubility: it is the concentration that dissolves in the medium under given conditions. Low values mean little dissolved substance, high ones much dissolved substance. As usually defined, the pKa is the negative logarithm of the acid dissociation constant.

Turning to `CC(C)C[C@@H]1NC(=O)[C@@H](Cc2ccccc2)NC(=O)[C@H](CCN)NC(=O)[C@@H](NC(=O)[C@H](CCN)NC(=O)[C@@H](NC(=O)[C@H](CCN)NC(=O)Nc2ccccc2Cl)[C@@H](C)O)CCNC(=O)[C@H]([C@@H](C)O)NC(=O)[C@H](CCN)NC(=O)[C@H](CCN)NC1=O` [Compound 5, (S)-4-amino-N-((2S,3R)-1-((S)-4-amino-1-oxo-1-((3S,6S,9S,12S,15R,18S,21S)-6,9,18-tris(2-aminoethyl)-15-benzyl-3-((R)-1-hydroxyethyl)-12-isobutyl-2,5,8,11,14,17,20-heptaoxo-1,4,7,10,13,16,19-heptaazacyclotricosan-21-ylamino)butan-2-ylamino)-3-hydroxy-1-oxobutan-2-yl)-2-(3-(2-chlorophenyl)ureido)butanamide] ({NH(2-ClPh)-CO}-[Dab]T[Dab][Dab][Dab][dF]L[Dab][Dab]T; lactam 4-C), the “models in which efficacy was demonstrated” value in data set [1] was 7 out of 8. The “EC50 Rat kidney proximal tubule cells” value in data set [2] is listed as above 1000 micrograms/ml. Moreover, the solubility in “Solubility profile” (ethanol) was 200 µg/mL (≈ 164 µM); in the data set “Solubility profile” (water), above 300000 µg/mL. Besides, the “MIC E. coli 1699” value against E. coli 1699 amounted to 2 micrograms/mL. Moreover, the pKa in data set [3] was 8.17. Further, the “blood urea nitrogen (BUN) and serum creatinine” value in data set [4] (6 mg/kg QD, 9 mg/kg QD) is “increase”. In addition, the kidney histopathological changes entry in data set [4] (6 and 9 mg/kg QD, lesser severity at 3 and 4.5 mg/kg BID, 7 days IV) is “minimal to mild degeneration/necrosis and regeneration of tubular epithelium”. Besides, the “MIC K. pneumonia 21” value in the data set on K. pneumonia 21 amounted to 2 micrograms/mL.
